Data taken from publication PMC2064598 (The Journal of Cell Biology, 2006).

Assays:
mGrA = target: T1, mGrA (Mus musculus, UniProt P11032); experiment: absorbance progress curve; format: biochemical
T1 sequence (P11032 29-260): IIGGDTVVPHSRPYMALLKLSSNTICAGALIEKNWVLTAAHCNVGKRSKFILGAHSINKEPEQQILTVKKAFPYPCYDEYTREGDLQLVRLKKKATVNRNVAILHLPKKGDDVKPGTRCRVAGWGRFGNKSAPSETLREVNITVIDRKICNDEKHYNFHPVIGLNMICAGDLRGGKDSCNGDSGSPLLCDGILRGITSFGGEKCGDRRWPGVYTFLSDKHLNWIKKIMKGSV

hGrA = target: T2, hGrA (Homo sapiens, UniProt P12544); experiment: absorbance progress curve; format: biochemical
T2 sequence (P12544 29-262): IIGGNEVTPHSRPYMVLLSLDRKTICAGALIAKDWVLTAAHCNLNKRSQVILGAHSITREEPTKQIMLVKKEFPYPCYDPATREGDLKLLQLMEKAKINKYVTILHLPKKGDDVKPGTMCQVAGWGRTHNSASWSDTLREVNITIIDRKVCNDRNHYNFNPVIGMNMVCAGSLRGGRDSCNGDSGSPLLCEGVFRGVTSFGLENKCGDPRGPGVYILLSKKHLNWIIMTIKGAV

Compound: NCCCC[C@H](NC(=O)OCc1ccccc1)C(=O)SCc1ccccc1 [benzyloxy-carbonyl-Lys-thiobenzyl ester]
- specific activity (mGrA): Progress curves of mGrA (closed boxes) and hGrA (open boxes) cleaving benzyloxy-carbonyl-Lys-thiobenzyl ester
- specific activity (hGrA): Progress curves of mGrA (closed boxes) and hGrA (open boxes) cleaving benzyloxy-carbonyl-Lys-thiobenzyl ester
